From US20190105264A1, “NON-INVASIVE OCULAR DRUG DELIVERY DEVICES” (Aciont Inc., priority 2017, published 2019)

Tests used:
treated eyes (right eye) = details: rabbit, in vivo
Method: Young adult New Zealand White rabbits each weighing 3-4 kg were obtained from Western Oregon Rabbit Co. (Philomath, Oreg.). […] All animals were acclimated and observed for health issues for at least two weeks prior to being used in the study.
(§1) For the ocular toxicity study, there were four groups. […] The total exposure was 12 doses over the period of 12 weeks. Clinical observations were performed on weekdays, and before and after each dosing. Following the final observations (i.e., one week after the last dose), the rabbits were sacrificed and the eyes were processed for histological evaluation.
One drop of sterile proparacaine hydrochloride (a local anesthetic) was put on the eye (to be treated) 5 minutes before dose administration. […] The position of the device was checked to ensure that the active agent matrix was in immediate contact with the white part of the eye but not the cornea. Digital timers were used for accurate application times (i.e., 5, 10, or 20 minutes). After the given application duration, the applicator was carefully removed from the eye.
All animals (both left and right eyes) were examined by indirect ophthalmoscopy of the cornea, conjunctiva, anterior chamber, vitreous, posterior chamber, and sclera. […] Observations on the anterior and posterior segments of the eye were made, graded, and recorded. […]

[1] = Ocular toxicity study: body weight; details: 20 min, 12 weekly doses
Method: as §1
Body weights of the animal were taken upon arrival, and then monthly. All animals (both left and right eyes) were examined by indirect ophthalmoscopy of the cornea, conjunctiva, anterior chamber, vitreous, posterior chamber, and sclera. One to two drops each of phenylephrine hydrochloride and cyclopentolate hydrochloride were used as mydriatics. Observations on the anterior and posterior segments of the eye were made, graded, and recorded. A modified McDonald-Shadduck scale was used for grading eye irritation and ocular toxicity.

C[C@@H]1C[C@H]2[C@@H]3CCC4=CC(=O)C=C[C@]4(C)[C@@]3(F)[C@@H](O)C[C@]2(C)[C@@]1(O)C(=O)COP(=O)(O)O [DSP, dexamethasone sodium phosphate]
Typical conjunctival injection scores immediately after treatment (treated eyes (right eye); New Zealand White, 12 weeks): 1 or <1 | Ocular findings in treated eyes (conjunctival injection, discharge, corneal haze) (treated eyes (right eye)): transient and mild in nature | Body Weight ([1]; 15% DSP): 8% loss | Body Weight ([1]; 25% DSP): 13% loss
